Laboratory results from article PMC9030254, “Target Hopping from Protein Kinases to PXR: Identification of Small-Molecule Protein Kinase Inhibitors as Selective Modulators of Pregnane X Receptor from TüKIC Library” (Cells, 2022).

Tests used:
Assay in all cases: Kinase profiling
Type in all cases: biochemical
ROS = biological target: T1, ROS (Homo sapiens, UniProt P08922)
T1 construct: purchased ProQinase (Freiburg, Germany)
Procedure: (§1) The analysis was performed by ProQinase (Freiburg, Germany).

ROCK2 = biological target: T2, ROCK2 (Homo sapiens, UniProt O75116)
T2 construct: purchased ProQinase (Freiburg, Germany)
Procedure: as §1

JAK2 = biological target: T3, JAK2 (Homo sapiens, UniProt O60674)
T3 construct: purchased ProQinase (Freiburg, Germany)
Procedure: as §1

RIPK4 = biological target: T4, RIPK4 (Homo sapiens, UniProt P57078)
T4 construct: purchased ProQinase (Freiburg, Germany)
T4 sequence (P57078 1-832): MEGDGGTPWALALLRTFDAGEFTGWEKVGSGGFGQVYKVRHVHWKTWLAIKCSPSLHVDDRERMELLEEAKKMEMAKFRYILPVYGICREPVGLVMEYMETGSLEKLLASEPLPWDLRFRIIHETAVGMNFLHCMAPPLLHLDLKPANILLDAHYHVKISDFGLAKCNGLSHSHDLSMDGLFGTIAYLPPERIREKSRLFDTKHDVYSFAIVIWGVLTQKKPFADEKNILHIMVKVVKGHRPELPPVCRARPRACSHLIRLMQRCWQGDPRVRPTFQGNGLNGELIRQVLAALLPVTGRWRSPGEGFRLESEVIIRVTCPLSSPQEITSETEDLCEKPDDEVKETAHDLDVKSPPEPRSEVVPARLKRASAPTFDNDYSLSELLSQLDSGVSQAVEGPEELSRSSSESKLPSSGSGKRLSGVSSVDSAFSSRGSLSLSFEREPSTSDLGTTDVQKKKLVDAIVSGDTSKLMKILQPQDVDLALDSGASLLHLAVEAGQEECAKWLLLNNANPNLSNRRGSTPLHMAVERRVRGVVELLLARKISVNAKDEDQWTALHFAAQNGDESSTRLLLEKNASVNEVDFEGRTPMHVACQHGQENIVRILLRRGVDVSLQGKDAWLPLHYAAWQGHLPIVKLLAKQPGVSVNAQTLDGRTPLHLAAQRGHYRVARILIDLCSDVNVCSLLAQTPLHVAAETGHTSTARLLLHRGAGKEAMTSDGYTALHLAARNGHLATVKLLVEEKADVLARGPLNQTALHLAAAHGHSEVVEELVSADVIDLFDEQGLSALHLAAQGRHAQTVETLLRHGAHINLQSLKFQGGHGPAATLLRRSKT
Procedure: as §1

CDK18/CycY = biological target: T5, CDK18/CycY (Homo sapiens, UniProt Q07002)
T5 construct: purchased ProQinase (Freiburg, Germany)
T5 sequence (Q07002 whole entry): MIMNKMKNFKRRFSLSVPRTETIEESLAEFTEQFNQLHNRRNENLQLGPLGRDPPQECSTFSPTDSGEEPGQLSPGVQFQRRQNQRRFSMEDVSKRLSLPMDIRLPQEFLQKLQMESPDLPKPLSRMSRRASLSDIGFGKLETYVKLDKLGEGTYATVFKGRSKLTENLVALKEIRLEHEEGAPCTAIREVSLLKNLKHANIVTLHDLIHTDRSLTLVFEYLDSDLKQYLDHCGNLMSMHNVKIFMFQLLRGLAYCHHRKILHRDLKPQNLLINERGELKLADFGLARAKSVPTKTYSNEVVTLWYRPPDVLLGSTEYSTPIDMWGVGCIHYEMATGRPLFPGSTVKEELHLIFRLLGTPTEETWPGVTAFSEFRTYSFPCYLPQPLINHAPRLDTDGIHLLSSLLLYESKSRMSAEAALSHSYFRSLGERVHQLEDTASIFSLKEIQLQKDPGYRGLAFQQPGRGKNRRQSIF
T5 sequence (Q8ND76 whole entry partner): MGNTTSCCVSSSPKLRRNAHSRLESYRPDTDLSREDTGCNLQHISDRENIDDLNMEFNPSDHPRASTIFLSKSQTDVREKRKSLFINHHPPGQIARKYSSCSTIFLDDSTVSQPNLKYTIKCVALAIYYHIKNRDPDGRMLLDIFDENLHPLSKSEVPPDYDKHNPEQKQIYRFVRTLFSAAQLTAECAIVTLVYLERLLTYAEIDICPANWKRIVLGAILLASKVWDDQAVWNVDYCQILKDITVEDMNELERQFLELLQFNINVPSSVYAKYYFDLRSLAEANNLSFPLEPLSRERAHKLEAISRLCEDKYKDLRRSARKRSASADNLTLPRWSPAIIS
Procedure: as §1

MELK = biological target: T6, MELK (Homo sapiens, UniProt Q14680)
T6 construct: purchased ProQinase (Freiburg, Germany)
T6 sequence (Q14680 whole entry): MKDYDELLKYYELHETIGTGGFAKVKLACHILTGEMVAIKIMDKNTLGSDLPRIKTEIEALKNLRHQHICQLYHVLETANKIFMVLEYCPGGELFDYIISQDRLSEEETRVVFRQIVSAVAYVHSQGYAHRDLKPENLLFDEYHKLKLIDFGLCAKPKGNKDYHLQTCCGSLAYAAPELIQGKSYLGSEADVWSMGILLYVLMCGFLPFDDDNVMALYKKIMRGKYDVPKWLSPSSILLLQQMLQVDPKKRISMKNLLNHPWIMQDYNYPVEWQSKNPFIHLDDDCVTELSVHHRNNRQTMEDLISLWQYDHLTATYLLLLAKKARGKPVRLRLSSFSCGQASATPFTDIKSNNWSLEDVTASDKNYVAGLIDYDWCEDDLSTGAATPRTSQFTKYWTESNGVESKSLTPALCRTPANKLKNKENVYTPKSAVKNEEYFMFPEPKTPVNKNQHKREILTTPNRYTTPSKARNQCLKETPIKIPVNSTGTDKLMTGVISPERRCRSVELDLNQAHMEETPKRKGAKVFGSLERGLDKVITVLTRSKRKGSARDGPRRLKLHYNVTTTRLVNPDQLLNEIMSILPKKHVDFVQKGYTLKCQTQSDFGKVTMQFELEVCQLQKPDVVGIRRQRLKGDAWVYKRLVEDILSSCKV
Procedure: as §1

CDC42BPB = biological target: T7, CDC42BPB (Homo sapiens, UniProt Q9Y5S2)
T7 construct: purchased ProQinase (Freiburg, Germany)
T7 sequence (Q9Y5S2 whole entry): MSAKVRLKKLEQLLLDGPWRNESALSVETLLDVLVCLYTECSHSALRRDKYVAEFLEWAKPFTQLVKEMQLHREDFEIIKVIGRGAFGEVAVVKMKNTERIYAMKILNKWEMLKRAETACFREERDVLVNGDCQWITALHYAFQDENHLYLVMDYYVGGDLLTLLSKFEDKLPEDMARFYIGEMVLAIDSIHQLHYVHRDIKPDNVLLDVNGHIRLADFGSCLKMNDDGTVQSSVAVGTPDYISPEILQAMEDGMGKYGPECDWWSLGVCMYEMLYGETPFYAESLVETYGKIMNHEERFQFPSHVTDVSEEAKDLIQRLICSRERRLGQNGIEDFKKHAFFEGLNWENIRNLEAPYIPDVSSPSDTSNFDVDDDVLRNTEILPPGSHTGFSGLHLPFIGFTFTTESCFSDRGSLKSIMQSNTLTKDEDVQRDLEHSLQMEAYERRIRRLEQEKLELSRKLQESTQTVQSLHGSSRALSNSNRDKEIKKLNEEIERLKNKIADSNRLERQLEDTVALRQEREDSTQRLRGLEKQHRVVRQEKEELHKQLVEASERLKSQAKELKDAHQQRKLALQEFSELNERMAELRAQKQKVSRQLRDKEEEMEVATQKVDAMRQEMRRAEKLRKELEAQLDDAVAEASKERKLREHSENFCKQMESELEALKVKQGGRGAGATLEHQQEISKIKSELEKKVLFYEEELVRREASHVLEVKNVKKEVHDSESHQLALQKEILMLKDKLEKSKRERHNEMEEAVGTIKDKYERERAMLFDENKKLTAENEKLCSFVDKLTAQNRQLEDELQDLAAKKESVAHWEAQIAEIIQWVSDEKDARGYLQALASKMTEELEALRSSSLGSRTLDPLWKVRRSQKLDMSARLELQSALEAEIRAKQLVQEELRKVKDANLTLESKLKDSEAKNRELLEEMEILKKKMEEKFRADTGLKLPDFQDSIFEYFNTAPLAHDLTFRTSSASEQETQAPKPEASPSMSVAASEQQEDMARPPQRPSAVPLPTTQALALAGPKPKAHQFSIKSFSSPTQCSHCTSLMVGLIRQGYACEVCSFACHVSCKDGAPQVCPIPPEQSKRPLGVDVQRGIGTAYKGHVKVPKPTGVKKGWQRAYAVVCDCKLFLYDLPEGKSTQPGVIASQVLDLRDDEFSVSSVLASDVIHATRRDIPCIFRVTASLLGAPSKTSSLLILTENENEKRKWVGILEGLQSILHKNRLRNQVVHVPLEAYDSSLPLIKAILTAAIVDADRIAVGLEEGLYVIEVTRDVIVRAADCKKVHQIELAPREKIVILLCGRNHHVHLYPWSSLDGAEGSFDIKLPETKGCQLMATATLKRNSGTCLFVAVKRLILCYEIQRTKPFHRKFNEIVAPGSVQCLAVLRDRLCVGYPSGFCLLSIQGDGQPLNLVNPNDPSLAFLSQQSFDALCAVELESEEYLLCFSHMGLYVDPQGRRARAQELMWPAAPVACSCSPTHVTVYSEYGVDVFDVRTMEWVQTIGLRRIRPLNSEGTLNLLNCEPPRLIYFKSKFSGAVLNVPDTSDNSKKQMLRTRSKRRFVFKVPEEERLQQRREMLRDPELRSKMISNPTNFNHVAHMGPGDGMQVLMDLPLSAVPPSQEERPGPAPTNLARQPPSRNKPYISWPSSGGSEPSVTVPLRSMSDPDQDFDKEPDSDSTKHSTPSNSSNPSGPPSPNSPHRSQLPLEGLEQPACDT
Procedure: as §1

EPHA4 = biological target: T8, EPHA4 (Homo sapiens, UniProt P54764)
T8 construct: purchased ProQinase (Freiburg, Germany)
T8 sequence (P54764 20-986): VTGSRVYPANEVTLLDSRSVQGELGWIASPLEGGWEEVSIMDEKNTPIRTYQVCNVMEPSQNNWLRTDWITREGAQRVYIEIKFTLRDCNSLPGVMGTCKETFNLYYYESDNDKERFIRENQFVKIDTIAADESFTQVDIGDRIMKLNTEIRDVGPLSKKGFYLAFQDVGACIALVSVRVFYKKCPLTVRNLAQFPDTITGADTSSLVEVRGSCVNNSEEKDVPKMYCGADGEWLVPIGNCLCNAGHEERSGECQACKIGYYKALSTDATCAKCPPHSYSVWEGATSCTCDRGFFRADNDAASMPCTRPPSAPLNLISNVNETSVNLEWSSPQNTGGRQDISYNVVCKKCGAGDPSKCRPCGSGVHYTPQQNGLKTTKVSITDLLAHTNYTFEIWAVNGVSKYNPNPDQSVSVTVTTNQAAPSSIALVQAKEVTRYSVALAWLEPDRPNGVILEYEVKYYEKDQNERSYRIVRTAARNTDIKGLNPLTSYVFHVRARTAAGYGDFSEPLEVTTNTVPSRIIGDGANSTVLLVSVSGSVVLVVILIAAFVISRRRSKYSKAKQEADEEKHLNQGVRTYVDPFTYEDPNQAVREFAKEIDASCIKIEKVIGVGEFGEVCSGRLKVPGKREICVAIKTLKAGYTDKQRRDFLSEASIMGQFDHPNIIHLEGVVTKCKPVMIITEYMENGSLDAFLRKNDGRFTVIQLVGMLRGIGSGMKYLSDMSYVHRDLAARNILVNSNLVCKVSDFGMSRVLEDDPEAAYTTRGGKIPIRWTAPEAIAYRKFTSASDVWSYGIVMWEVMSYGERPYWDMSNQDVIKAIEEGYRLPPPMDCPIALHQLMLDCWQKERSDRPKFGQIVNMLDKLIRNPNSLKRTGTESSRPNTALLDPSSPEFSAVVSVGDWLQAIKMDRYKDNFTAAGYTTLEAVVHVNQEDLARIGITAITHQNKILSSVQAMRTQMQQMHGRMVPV
Procedure: as §1

BRSK2 = biological target: T9, BRSK2 (Homo sapiens, UniProt Q8IWQ3)
T9 construct: purchased ProQinase (Freiburg, Germany)
T9 sequence (Q8IWQ3 1-736): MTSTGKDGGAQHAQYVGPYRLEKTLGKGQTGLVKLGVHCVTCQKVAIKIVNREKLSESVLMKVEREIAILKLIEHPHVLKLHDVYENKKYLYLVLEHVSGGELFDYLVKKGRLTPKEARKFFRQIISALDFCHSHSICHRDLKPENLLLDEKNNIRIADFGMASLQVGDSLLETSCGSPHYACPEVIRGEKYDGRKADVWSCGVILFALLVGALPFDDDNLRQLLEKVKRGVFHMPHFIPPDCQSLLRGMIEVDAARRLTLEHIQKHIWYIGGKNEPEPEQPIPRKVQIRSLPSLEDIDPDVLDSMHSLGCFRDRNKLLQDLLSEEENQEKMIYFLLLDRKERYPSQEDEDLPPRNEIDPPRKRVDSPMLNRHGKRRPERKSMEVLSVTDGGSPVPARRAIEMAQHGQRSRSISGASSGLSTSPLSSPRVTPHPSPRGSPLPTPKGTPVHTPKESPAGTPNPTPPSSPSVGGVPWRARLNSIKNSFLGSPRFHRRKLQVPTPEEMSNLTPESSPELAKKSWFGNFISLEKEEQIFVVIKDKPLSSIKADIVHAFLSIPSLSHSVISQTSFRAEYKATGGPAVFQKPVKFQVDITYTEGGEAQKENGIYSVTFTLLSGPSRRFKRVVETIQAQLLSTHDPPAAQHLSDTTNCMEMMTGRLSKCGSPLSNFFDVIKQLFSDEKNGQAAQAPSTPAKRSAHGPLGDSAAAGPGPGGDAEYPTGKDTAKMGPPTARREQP
Procedure: as §1

BMPR1B = biological target: T10, BMPR1B (Homo sapiens, UniProt O00238)
T10 construct: purchased ProQinase (Freiburg, Germany)
Procedure: as §1

MTOR = biological target: T11, MTOR (Homo sapiens, UniProt P42345)
T11 construct: purchased ProQinase (Freiburg, Germany)
Procedure: as §1

p38gamma = biological target: T12, p38gamma (Homo sapiens, UniProt P53778)
T12 construct: purchased ProQinase (Freiburg, Germany)
T12 sequence (P53778 1-367): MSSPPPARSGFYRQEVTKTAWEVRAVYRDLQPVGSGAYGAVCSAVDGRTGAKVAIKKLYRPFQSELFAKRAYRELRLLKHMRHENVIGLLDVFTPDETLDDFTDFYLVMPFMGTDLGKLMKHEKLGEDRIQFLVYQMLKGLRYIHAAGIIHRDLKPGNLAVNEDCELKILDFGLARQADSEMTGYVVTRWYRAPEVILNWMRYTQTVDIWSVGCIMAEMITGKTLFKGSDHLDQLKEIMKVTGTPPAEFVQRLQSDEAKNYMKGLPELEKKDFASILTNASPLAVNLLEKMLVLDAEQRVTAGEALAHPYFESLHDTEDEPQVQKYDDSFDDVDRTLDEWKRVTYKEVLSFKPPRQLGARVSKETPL
Procedure: as §1

NEK6 = biological target: T13, NEK6 (Homo sapiens, UniProt Q9HC98)
T13 construct: purchased ProQinase (Freiburg, Germany)
T13 sequence (Q9HC98 whole entry): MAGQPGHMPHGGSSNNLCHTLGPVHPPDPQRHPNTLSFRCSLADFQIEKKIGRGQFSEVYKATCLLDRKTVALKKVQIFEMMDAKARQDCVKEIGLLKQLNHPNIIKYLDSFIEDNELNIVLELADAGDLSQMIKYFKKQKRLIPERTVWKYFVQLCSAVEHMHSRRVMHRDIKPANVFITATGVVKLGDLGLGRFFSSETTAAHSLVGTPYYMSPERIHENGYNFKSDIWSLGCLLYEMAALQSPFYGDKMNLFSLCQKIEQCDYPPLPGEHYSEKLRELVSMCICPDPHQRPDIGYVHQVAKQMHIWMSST
Procedure: as §1

TSF1 = biological target: T14, TSF1 (Homo sapiens, UniProt O75716)
T14 construct: purchased ProQinase (Freiburg, Germany)
T14 sequence (O75716 whole entry): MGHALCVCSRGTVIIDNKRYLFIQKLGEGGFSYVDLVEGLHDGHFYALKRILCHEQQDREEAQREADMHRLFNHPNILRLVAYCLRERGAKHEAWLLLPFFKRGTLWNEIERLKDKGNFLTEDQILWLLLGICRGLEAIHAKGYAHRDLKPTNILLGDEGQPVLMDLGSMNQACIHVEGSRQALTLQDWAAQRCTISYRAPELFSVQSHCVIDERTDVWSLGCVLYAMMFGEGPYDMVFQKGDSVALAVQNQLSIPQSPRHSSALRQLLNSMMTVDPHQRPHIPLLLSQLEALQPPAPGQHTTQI
Procedure: as §1

Compound: O=C(Cc1ccccc1)Nc1ccc(F)c(Nc2ccc3c(c2)CCCCC3=O)c1 [Compound 100]
- Residual activity (ROS; 1.0E-05 M): 91 % of control
- Residual activity (ROS; 1.0E-06 M): 99 % of control
- Residual activity (ROCK2; 1.0E-05 M): 102 % of control
- Residual activity (ROCK2; 1.0E-06 M): 101 % of control
- Residual activity (JAK2; 1.0E-05 M): 85 % of control
- Residual activity (JAK2; 1.0E-06 M): 94 % of control
- Residual activity (RIPK4; 1.0E-05 M): 98 % of control
- Residual activity (RIPK4; 1.0E-06 M): 103 % of control
- Residual activity (CDK18/CycY; 1.0E-05 M): 88 % of control
- Residual activity (CDK18/CycY; 1.0E-06 M): 93 % of control
- Residual activity (MELK; 1.0E-05 M): 90 % of control
- Residual activity (MELK; 1.0E-06 M): 93 % of control
- Residual activity (CDC42BPB; 1.0E-05 M): 107 % of control
- Residual activity (CDC42BPB; 1.0E-06 M): 112 % of control
- Residual activity (EPHA4; 1.0E-05 M): 88 % of control
- Residual activity (EPHA4; 1.0E-06 M): 97 % of control
- Residual activity (BRSK2; 1.0E-05 M): 99 % of control
- Residual activity (BRSK2; 1.0E-06 M): 113 % of control
- Residual activity (BMPR1B; 1.0E-05 M): 121 % of control
- Residual activity (BMPR1B; 1.0E-06 M): 102 % of control
- Residual activity (MTOR; 1.0E-05 M): 92 % of control
- Residual activity (MTOR; 1.0E-06 M): 93 % of control
- Residual activity (p38gamma; 1.0E-05 M): 84 % of control
- Residual activity (p38gamma; 1.0E-06 M): 93 % of control
- Residual activity (NEK6; 1.0E-05 M): 87 % of control
- Residual activity (NEK6; 1.0E-06 M): 95 % of control
- Residual activity (TSF1; 1.0E-05 M): 88 % of control
- Residual activity (TSF1; 1.0E-06 M): 107 % of control

Compound: O=C(Nc1ccc(F)c(Nc2ccc3c(c2)CCCCC3=O)c1)c1cccc(F)c1 [Compound 109]
- Residual activity (ROS; 1.0E-05 M): 85 % of control
- Residual activity (ROS; 1.0E-06 M): 97 % of control
- Residual activity (ROCK2; 1.0E-05 M): 98 % of control
- Residual activity (ROCK2; 1.0E-06 M): 103 % of control
- Residual activity (JAK2; 1.0E-05 M): 89 % of control
- Residual activity (JAK2; 1.0E-06 M): 90 % of control
- Residual activity (RIPK4; 1.0E-05 M): 100 % of control
- Residual activity (RIPK4; 1.0E-06 M): 103 % of control
- Residual activity (CDK18/CycY; 1.0E-05 M): 98 % of control
- Residual activity (CDK18/CycY; 1.0E-06 M): 91 % of control
- Residual activity (MELK; 1.0E-05 M): 90 % of control
- Residual activity (MELK; 1.0E-06 M): 107 % of control
- Residual activity (CDC42BPB; 1.0E-05 M): 110 % of control
- Residual activity (CDC42BPB; 1.0E-06 M): 106 % of control
- Residual activity (EPHA4; 1.0E-05 M): 90 % of control
- Residual activity (EPHA4; 1.0E-06 M): 86 % of control
- Residual activity (BRSK2; 1.0E-05 M): 100 % of control
- Residual activity (BRSK2; 1.0E-06 M): 109 % of control
- Residual activity (BMPR1B; 1.0E-05 M): 128 % of control
- Residual activity (BMPR1B; 1.0E-06 M): 101 % of control
- Residual activity (MTOR; 1.0E-05 M): 94 % of control
- Residual activity (MTOR; 1.0E-06 M): 94 % of control
- Residual activity (p38gamma; 1.0E-05 M): 52 % of control
- Residual activity (p38gamma; 1.0E-06 M): 88 % of control
- Residual activity (NEK6; 1.0E-05 M): 92 % of control
- Residual activity (NEK6; 1.0E-06 M): 96 % of control
- Residual activity (TSF1; 1.0E-05 M): 94 % of control
- Residual activity (TSF1; 1.0E-06 M): 97 % of control
